Experiments:
[1] = test system: hemp sesbania (Seshania exaltata); assay: Test Example 1, peanut field: herbicidal activity; assay type: in vivo; settings: sprayed over plants grown 12 days, examined 7 days after application
Procedure: (§1) Plastic pots each having a diameter of 18 cm and depth of 14 cm were filled with upland soil, and then seeded with yellow nutsedge (Cyperus esculentus), hemp sesbania (Seshania exaltata) and sicklepod (Cassia obtusifolia). In a greenhouse, they were grown for 12 days. Flumioxazin water dispersible granules (commercial name: Valor SX, produced by Valent U.S.A.), Imazosulfuron emulsifiable concentrate (produced by mixing well 5 parts of Imazosulfuron, 65 parts of cyclohexanone, 13 parts of Sorpol 2680 (Toho Chemical's product) and 17 parts of dimethylformamide) and a mixture of the Flumioxazin water dispersible granules and the Imazosulfuron emulsifiable concentrate were independently diluted in their designated amounts with water. Each dilution was uniformly sprayed over the test plants with a small sprayer. […] Further, the pots were seeded with peanut (Arachis hypogea) 7 days after the application, and the phytotoxicity against the crop was examined 10 days after the seeding.

[2] = test system: sicklepod (Cassia obtusifolia); assay: Test Example 1, peanut field: herbicidal activity; assay type: in vivo; settings: sprayed over plants grown 12 days, examined 7 days after application
Procedure: as §1

[3] = test system: yellow nutsedge (Cyperus esculentus); assay: Test Example 1, peanut field: herbicidal activity; assay type: in vivo; settings: sprayed over plants grown 12 days, examined 7 days after application
Procedure: as §1

[4] = test system: barnyardgrass (Echinochloa crus-gall); assay: Test Example 2, vegetable field: herbicidal activity; assay type: in vivo, Echinochloa crus-galli; settings: granules to soil surface the day after seeding, grown 29 days
Excerpt: (§2) Plastic pots each having a diameter of 18 cm and depth of 14 cm were filled with upland soil, and then seeded with barnyardgrass (Echinochloa crus-gall) and onion (Allium cepa).

[5] = test system: giant foxtail (Setaria faberi); assay: Test Example 5, vegetable field: herbicidal activity; assay type: in vivo; settings: granules to soil surface the day after seeding, 17 days in greenhouse
Excerpt: (§3) Plastic pots each having a diameter of 18 cm and depth of 14 cm were filled with upland soil, seedlings of strawberry (Fragaria ananassa) was transplanted and then seeded with giant foxtail (Setaria faberi).

[6] = test system: kudzu (Pueraria lobata); assay: Test Example 12, non-cultivated land: herbicidal activity; assay type: in vivo; settings: sprayed to soil surface the day after seeding, 14 days in greenhouse
Excerpt: Plastic pots each having a diameter of 9 cm and depth of 7 cm were filled with upland soil, and then seeded with kudzu (Pueraria lobata).

[7] = test system: peanut (Arachis hypogea); assay: Test Example 1, peanut field: phytotoxicity against crop; assay type: in vivo; settings: peanut seeded 7 days after application, examined 10 days after seeding
Procedure: as §1

[8] = test system: onion (Allium cepa); assay: Test Example 2, vegetable field: phytotoxicity; assay type: in vivo; settings: 20 g/ha active ingredient; granules to soil surface the day after seeding; grown 29 days
Excerpt: as §2

[9] = test system: strawberry (Fragaria ananassa); assay: Test Example 5, vegetable field: phytotoxicity; assay type: in vivo; settings: 40 g/ha active ingredient; transplanted seedlings; granules to soil surface the next day; 17 days in greenhouse
Excerpt: as §3

Row | Structure (SMILES) | Herbicidal activity Se ([1]; 60 g/ha active ingredient) | Herbicidal activity Se ([1]; 120 g/ha active ingredient) | Herbicidal activity Co ([2]; 60 g/ha active ingredient) | Herbicidal activity Co ([2]; 120 g/ha active ingredient) | Herbicidal activity Ce ([3]; 60 g/ha active ingredient) | Herbicidal activity Ce ([3]; 120 g/ha active ingredient) | Herbicidal activity Barnyardgrass ([4]; 50 g/ha active ingredient) | Herbicidal activity giant foxtail ([5]; 50 g/ha active ingredient) | Herbicidal activity giant foxtail ([5]; 250 g/ha active ingredient) | Herbicidal activity kudzu ([6]; 100 g/ha active ingredient) | Herbicidal activity kudzu ([6]; 500 g/ha active ingredient) | Herbicidal activity Se ([1]; 30 g/ha active ingredient) | Herbicidal activity Co ([2]; 30 g/ha active ingredient) | Herbicidal activity Ce ([3]; 30 g/ha active ingredient) | Phytotoxicity against crop Peanut ([7]; 30 g/ha active ingredient) | Phytotoxicity against crop Peanut ([7]; 60 g/ha active ingredient) | Herbicidal activity Barnyardgrass ([4]; 20 g/ha active ingredient) | Phtotoxicity Onion [8] | Herbicidal activity giant foxtail ([5]; 40 g/ha active ingredient) | Phtotoxicity strawberry [9]
1 | COc1cc(OC)nc(NC(=O)NS(=O)(=O)c2c(Cl)nc3ccccn23)n1 [Imazosulfuron, 1-(2-chloroimidazo[1,2-a]pyridin-3-ylsulfonyl)-3-(4,6-dimethoxypyrimidin-2-yl)urea] | 2 | 3 | 1 | 1 | 2 | 2 | 0 | 0 | 1 | 1 | 2 |  |  |  |  |  |  |  |  | 
2 | C#CCN1C(=O)COc2cc(F)c(N3C(=O)C4=C(CCCC4)C3=O)cc21 [Flumioxazin, N-(7-fluoro-3,4-dihydro-3-oxo-4-prop-2-ynyl-2H-1,4-benzoxadin-6-yl)cyclohex-1-ene-1,2-dicarboxamide] | 1 |  | 1 |  | 0 |  |  |  |  | 1 |  | 1 | 0 | 0 | No damage | No damage | 1 | No damage | 2 | No damage

Source: patent US20060240986A1, “Herbicidal method” (Sumitomo Chemical Company, Limited, priority 2005, published 2006)
